Data: EPA's ToxValDB 9.5 (doi:10.2903/j.efsa.2013.3052)

Columns and labels:
Anas platyrhynchos = settings: short-term; oral; feed; mortality
Apis mellifera = settings: acute, duration: 48 hours, mortality
Bibionidae = settings: chronic/long-term; duration: 28 days; other
Cyprinodon variegatus = settings: acute; duration: 96 hours; mortality
Daphnia magna = settings: chronic/long-term; duration: 21 days; reproduction
Folsomia candida = settings: chronic/long-term; duration: 28 days; reproduction
Hypoaspis aculeifer = settings: chronic/long-term; duration: 14 days; reproduction
Mus musculus = settings: subchronic; duration: 90 days; oral; diet; organ weight
Neomysis kadiakensis = settings: acute; duration: 96 hours; mortality
Pimephales promelas = settings: chronic/long-term; duration: 33 days; behavior

`O=C(NCCc1ncc(C(F)(F)F)cc1Cl)c1ccccc1C(F)(F)F` [Fluopyram] was tested, and the LC50 (Anas platyrhynchos) was greater than 1640 mg/kg-day, the LD50 (Apis mellifera; dermal) was greater than 100 µg/piece and the LD50 (Apis mellifera; oral, unspecified) was greater than 102 µg/piece. The NOEC (Bibionidae) was 1.39 mg/L, the LD50 (Colinus virginianus; acute, oral, mortality) was greater than 2000 mg/kg-day and the NOAEL (Colinus virginianus; reproduction developmental) was 7.2 mg/kg-day. It also gave an LC50 (Cyprinodon variegatus) greater than 0.98 µg/mL, an NOEC (Daphnia magna) of 1.25 mg/L and an NOEC (Folsomia candida) of 104 mg/kg. The NOEC (Hypoaspis aculeifer) was greater than 415 mg/kg, the NOAEL (Mus musculus) was 5.4 mg/kg-day and the LC50 (Neomysis kadiakensis) was greater than 0.5 µg/mL. It also gave an NOEC (Pimephales promelas) of 0.135 mg/L, an NOAEL (Rattus norvegicus; acute, F, neurology) of 50 mg/kg-day and an LD50 (Rattus norvegicus; acute, oral, mortality) greater than 2000 mg/kg-day. For the same molecule, the NOAEL (Rattus norvegicus; chronic) was 14.5 mg/kg-day, the NOAEL (Rattus norvegicus; chronic, duration: 2 years, oral, diet, body weight) was 1.2 mg/kg-day and the LC50 (Tagia sp.; acute, duration: 14 days, mortality) was greater than 1000 mg/kg. It also gave an NOEC (Tagia sp.; chronic/long-term, duration: 56 days, reproduction) of 11.4 mg/kg.
